Test results reported in paper PMC9518283 (Journal of Enzyme Inhibition and Medicinal Chemistry, 2022).
“And” between values parts separate entries of the source, which are not always exact repeats. Identical values can stand only once.

Columns and labels:
[1] = molecular target: T1, hMAO-B (Homo sapiens, UniProt P27338); assay: biochemical; conditions: for % of MAO-B activity (1 µM) / % of MAO-B activity (10 µM): residual enzyme activity; for % of MAO-B activity (1 µM): compound at 1 µM; for % of MAO-B activity (10 µM): compound at 10 µM; for IC50: IC50 hMAO-B ± STD, mean of at least three experiments
T1 construct: purchased Sigma-Aldrich (St. Louis, MO, USA)
T1 sequence (P27338 1-520): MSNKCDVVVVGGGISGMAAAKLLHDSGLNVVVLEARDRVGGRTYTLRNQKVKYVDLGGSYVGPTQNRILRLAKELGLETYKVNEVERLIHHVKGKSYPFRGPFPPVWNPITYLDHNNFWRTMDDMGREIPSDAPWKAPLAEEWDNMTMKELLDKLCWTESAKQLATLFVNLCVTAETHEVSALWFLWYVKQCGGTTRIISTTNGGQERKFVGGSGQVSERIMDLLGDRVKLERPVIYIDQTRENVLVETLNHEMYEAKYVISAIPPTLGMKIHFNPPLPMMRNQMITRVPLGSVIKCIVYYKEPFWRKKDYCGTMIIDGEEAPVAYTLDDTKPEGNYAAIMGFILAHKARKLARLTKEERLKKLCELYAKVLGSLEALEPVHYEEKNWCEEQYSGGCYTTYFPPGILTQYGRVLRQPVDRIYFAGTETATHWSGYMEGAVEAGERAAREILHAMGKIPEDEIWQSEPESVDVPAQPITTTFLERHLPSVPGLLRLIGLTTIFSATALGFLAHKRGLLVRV
Method: (§1) The hMAO-A and hMAO-B enzymes were purchased from Sigma-Aldrich (St. Louis, MO, USA). […] The mixture was pre-incubated at 37 °C for 5 min and subsequently substrate kynuramine was added to the final concentration of 60 µM in the case of hMAO-A and 30 µM in the case of hMAO-B. The final volume of reaction mixture was 0.1 mL. The whole reaction mixture was incubated at 37 °C for 30 min. The reaction was stopped by the addition of 200 µL acetonitrile/methanol mixture (ratio 1:1) and cooling down to 0 °C. […] Eluents: (A) 0.1% formic acid in water; (B) 0.1% formic acid in acetonitrile.

[2] = class from PAMPA Pe
Method: (§4) The PAMPA was used as the non-cell-based in vitro assay to predict BBB penetration carried out in a coated 96-well membrane filter[44]^,[52]. […] Tested compounds were dissolved first in DMSO and then diluted with PBS (pH 7.4) to achieve the final concentration of 100 µM in the donor well. […] An aliquot of 300 µL of the donor solution (VD) was added to the donor wells and the donor filter plate was carefully put on the acceptor plate so that coated membrane was "in touch" with both donor solution and acceptor buffer. […] The concentration of the tested compound in both the donor and acceptor wells was assessed after 3, 4, 5, and 6 h of incubation, respectively, in quadruplicate using a multi-plate reader Spark (Tecan GmbH, Grödig, Austria) at the maximum absorption wavelength of each compound. Also prepared were solutions at the theoretical equilibrium of the given compound (i.e. the theoretical concentration if the donor and acceptor compartment were simply combined).

[3] = in vitro; conditions: PAMPA, pH 7.4
Method: as §4

[4] = system: human neuroblastoma cell line (SH-SY5Y); assay: MTT cytotoxicity on SH-SY5Y; conditions: 24 h, read-out: IC50 ± SEM SH-SY5Y
Method: (§5) Briefly, HepG2 and SH-SY5Y cells were seeded into 96-well plates in 100 µL and density of 15 × 10^3 and 20 × 10^3 cells per well, respectively. Cells were allowed to attach overnight. The stock solutions of tested compounds were prepared in DMSO (Sigma-Aldrich), further serially diluted in cultivation medium and added to the cells in 96-well culture plate. […] After 24 h was the medium aspirated and 100 µL MTT solution (0.5 mg/mL) in serum free DMEM medium was added to each well. The cells were then incubated for one hour. The medium was then aspirated and purple crystals of MTT formazan were dissolved in 100 µL DMSO under shaking. The absorbance was measured with a multimode microplate reader Spark® (Tecan Trading AG, Männedorf, Switzerland) at test wavelength of 570 nm.
(§6) The data were obtained from three independent experiments performed in triplicates. The IC50 values were expressed as a mean ± standard error of the mean (SEM).

[5] = system: human hepatocellular carcinoma cell line (HepG2); assay: MTT cytotoxicity on HepG2; conditions: HepG2, 24 h, read-out: IC50 ± SEM HepG2
Method: as §5, §6

[6] = molecular target: T2, hMAO-A (Homo sapiens, UniProt P21397); assay: hMAO-A inhibition, kynuramine substrate, HPLC-MS; type: biochemical; conditions: residual enzyme activity; for % of MAO-A activity (1 µM): compound at 1 µM; for % of MAO-A activity (10 µM): compound at 10 µM
T2 construct: purchased Sigma-Aldrich (St. Louis, MO, USA)
T2 sequence (P21397 1-527): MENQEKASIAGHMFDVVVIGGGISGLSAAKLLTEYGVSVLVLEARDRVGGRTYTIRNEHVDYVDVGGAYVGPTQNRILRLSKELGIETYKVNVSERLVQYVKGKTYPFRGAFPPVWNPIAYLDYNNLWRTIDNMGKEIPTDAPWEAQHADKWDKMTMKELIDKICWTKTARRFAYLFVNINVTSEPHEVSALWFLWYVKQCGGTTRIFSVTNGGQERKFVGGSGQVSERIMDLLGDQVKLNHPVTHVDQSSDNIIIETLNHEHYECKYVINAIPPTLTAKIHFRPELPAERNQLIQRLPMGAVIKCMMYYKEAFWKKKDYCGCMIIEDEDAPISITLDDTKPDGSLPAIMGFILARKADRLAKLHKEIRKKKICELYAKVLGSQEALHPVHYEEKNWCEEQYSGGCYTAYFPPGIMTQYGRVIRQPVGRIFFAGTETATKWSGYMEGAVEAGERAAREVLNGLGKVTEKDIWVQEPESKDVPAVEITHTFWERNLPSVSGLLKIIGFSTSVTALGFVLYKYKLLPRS
Method: as §1

[7] = molecular target: human AChE (hAChE; EC 3.1.1.7) (Homo sapiens, UniProt P22303); assay: biochemical; conditions: for IC50: mean of at least three experiments, read-out: IC50 hAChE ± STD; for SI (hBChE/hAChE): ratio IC50(hBChE)/IC50(hAChE)
Method: (§2) For that purpose, Ellman’s colorimetric assay was used[35].
(§3) The catalytic activity of both cholinesterases was determined by standard Ellman’s method adapted for 96-well plates. All tested inhibitors were freshly prepared in 50% DMSO/50% methanol at 10 mM concentration as stock solutions and then diluted in 0.1 M phosphate buffer, pH 7.4. […] The mixture was pre-incubated at 37 °C for 15 min and subsequently substrate (acetylthiocholine iodide or butyrylthiocholine iodide) was added to the final concentration of 1000 μM. The final volume of the reaction was 100 μL. The catalytic activity was evaluated as the amount of product (%) formed by enzyme after 10 min of incubation at 37 °C. The IC50 values from three independent experiments for each inhibitor concentration in triplicate were calculated using non-linear regression curve analysis in Prism version 7 Software (GraphPad Software Inc., San Diego, CA).

[8] = molecular target: human butyrylcholinesterase (hBChE; EC 3.1.1.8) (Homo sapiens, UniProt P06276); assay: biochemical; conditions: mean of at least three experiments; read-out: IC50 hBChE ± STD
Method: as §2, §3

[9] = system: SH-SY5Y cells; design: method as in PMID 25792506; conditions: 10, 50 and 100 µM, MTT; cited from earlier work
[10] = system: human hepatic stellate cells; design: method as in PMID 25792506; conditions: cited from earlier work

Chain of human butyrylcholinesterase (hBChE; EC 3.1.1.8) (P06276 29-602): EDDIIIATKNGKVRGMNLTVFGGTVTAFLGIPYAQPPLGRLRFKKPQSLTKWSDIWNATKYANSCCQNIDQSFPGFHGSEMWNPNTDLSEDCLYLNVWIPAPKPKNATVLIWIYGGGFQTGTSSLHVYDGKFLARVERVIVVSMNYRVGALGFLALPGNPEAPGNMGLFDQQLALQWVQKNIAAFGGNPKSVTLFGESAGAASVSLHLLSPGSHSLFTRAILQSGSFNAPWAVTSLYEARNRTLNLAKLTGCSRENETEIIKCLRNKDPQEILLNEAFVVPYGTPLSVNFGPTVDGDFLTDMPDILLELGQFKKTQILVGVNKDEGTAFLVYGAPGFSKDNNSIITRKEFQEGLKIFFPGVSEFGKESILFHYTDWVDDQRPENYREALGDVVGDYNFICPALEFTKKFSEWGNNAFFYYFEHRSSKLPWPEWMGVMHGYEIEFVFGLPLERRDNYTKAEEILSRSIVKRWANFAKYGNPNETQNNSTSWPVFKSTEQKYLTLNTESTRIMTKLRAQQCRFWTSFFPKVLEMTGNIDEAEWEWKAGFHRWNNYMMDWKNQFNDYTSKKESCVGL
Chain of human AChE (hAChE; EC 3.1.1.7) (P22303 32-614): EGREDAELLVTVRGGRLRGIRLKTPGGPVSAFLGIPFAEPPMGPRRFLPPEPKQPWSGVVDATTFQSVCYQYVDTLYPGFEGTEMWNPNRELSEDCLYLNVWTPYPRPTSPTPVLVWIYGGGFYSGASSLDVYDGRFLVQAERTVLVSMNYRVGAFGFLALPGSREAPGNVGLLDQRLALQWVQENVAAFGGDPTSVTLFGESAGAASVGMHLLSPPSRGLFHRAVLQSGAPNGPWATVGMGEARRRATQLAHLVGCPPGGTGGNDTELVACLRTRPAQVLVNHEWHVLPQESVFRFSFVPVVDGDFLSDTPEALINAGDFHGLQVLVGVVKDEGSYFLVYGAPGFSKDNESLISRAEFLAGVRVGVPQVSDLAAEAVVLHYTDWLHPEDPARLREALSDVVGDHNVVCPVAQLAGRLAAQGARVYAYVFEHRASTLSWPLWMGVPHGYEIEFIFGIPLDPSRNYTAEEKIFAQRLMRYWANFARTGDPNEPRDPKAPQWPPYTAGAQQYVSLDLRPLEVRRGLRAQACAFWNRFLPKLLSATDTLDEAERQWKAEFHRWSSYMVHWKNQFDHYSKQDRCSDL

| Structure (SMILES) | % of MAO-B activity (1 µM) [1] | % of MAO-B activity (10 µM) [1] | CNS predicted availability [2] | Papp at 100 µM [3] | IC50 [4] | IC50 [5] | % of MAO-A activity (1 µM) [6] | % of MAO-A activity (10 µM) [6] | IC50 [1] | IC50 [7] | SI (hBChE/hAChE) [7] | IC50 [8] | Papp [3] | effect on the viability of SH-SY5Y cells [9] | hepatotoxicity ([10]; 100 µM) | cell survival rate ([10]; 200 µM) |
| --- | --- | --- | --- | --- | --- | --- | --- | --- | --- | --- | --- | --- | --- | --- | --- | --- |
| Nc1c2c(nc3cc(Cl)ccc13)CCCC2 [6-Chlorotacrine, 6-chlorotacrine, reference compound] | 80% | 84% | CNS+ (CNS + (high BBB permeation predicted): Pe (×10^−6 cm s^−1) > 4.0) | 11 ± 0.5 ×10⁻⁶ cm/s | 50400 ± 1280 nM | 43200 ± 1170 nM | 61% | 48% |  |  |  |  |  |  |  |  |
| C=CCNc1c2c(nc3ccc(Oc4ccccc4)cc13)CCCC2.Cl [Compound 7, 7-Phenoxy-N-(prop-2-en-1-yl)-1,2,3,4-tetrahydroacridin-9-amine hydrochloride] | 5% | 2% |  | 4.22 ± 0.17 ×10⁻⁶ cm/s | 12400 ± 440 nM | 10300 ± 830 nM | 99% | 90% | 163 nM | 1120 ± 21 nM | 2.47 | 2770 ± 133 nM |  |  |  |  |
| COc1ccc2nc3c(c(N)c2c1)CCCC3 [Compound 7-MEOTA, 7-methoxytacrine, reference compound] | 78% | 76% | CNS+ (CNS + (high BBB permeation predicted): Pe (×10^−6 cm s^−1) > 4.0) |  | 53260 ± 380 nM | 44400 ± 3350 nM | 41% | 42% |  |  |  |  | 17 ± 3.6 ×10⁻⁶ cm/s |  |  |  |
| C#CCNc1c2c(nc3ccccc13)CCCC2 [Compound 9] | 83% | 61% |  |  |  |  | 94% | 56% |  | 94 ± 0.8 nM | 1.72 | 162 ± 8 nM |  | nearly no effect on the viability | nearly no hepatotoxicity | 91.38% |
| C#CCNc1c2c(nc3ccc(OC)cc13)CCCC2.Cl [Compound 13, 7-Methoxy-N-(prop-2-yn-1-yl)-1,2,3,4-tetrahydroacridin-9-amine hydrochloride] | 74% | 62% |  |  |  |  | 96% | 82% |  | 1360 ± 39 nM | 2.75 | 3760 ± 210 nM |  |  |  |  |
| C#CCN(CC#C)c1c2c(nc3ccc(Oc4ccccc4)cc13)CCCC2.Cl [Compound 14, 7-Phenoxy-N,N-di(prop-2-yn-1-yl)-1,2,3,4-tetrahydroacridin-9-amine hydrochloride] | 73% | 14% |  |  |  |  | 93% | 47% |  | 2880 ± 84 nM | 4.23 | 12200 ± 713 nM |  |  |  |  |
| C#CCNc1c2c(nc3ccc(Oc4ccccc4)cc13)CCCC2.Cl [Compound 15, 7-Phenoxy-N-(prop-2-yn-1-yl)-1,2,3,4-tetrahydroacridin-9-amine hydrochloride] | 8% | 3% |  | 10.4 ± 0.94 ×10⁻⁶ cm/s | 23400 ± 2550 nM | 16900 ± 770 nM | 41% | 51% | 40 nM and 40.4 nM | 1470 ± 24 nM | 0.45 | 659 ± 77 nM |  |  |  |  |
| C#CCN(CC#C)CCCNc1c2c(nc3ccccc13)CCCC2.Cl.Cl [Compound 20, N,N-Di(prop-2-yn-1-yl)-N'-(1,2,3,4-tetrahydroacridin-9-yl)propane-1,3-diamine dihydrochloride] | 148% | 96% |  | 12.2 ± 1.12 ×10⁻⁶ cm/s | 31400 ± 1550 nM | 38300 ± 1750 nM | 78% | 33% |  | 198 ± 24 nM | 0.39 | 78 ± 3 nM |  |  |  |  |
| C#CCNCCCNc1c2c(nc3ccccc13)CCCC2.Cl.Cl [Compound 21, N-(Prop-2-yn-1-yl)-N'-(1,2,3,4-tetrahydroacridin-9-yl)propane-1,3-diamine dihydrochloride] | 88% | 90% |  | 6.07 ± 0.53 ×10⁻⁶ cm/s | 38800 ± 750 nM | 25900 ± 730 nM | 47% | 54% |  | 95 ± 1 nM | 0.98 | 93 ± 3 nM |  |  |  |  |
| C#CCN(CC#C)CCCNc1c2c(nc3cc(Cl)ccc13)CCCC2.Cl.Cl [Compound 22, N'-(6-Chloro-1,2,3,4-tetrahydroacridin-9-yl)-N,N-di(prop-2-yn-1-yl)propane-1,3-diamine dihydrochloride] | 87% | 50% |  |  |  |  | 107% | 102% |  | 61 ± 2 nM | 2.79 | 170 ± 13 nM |  |  |  |  |
| C#CCN(CC#C)CCCNc1c2c(nc3ccc(OC)cc13)CCCC2.Cl.Cl [Compound 24, N-(7-Methoxy-1,2,3,4-tetrahydroacridin-9-yl)-N',N'-di(prop-2-yn-1-yl)-propane-1,3-diamine dihydrochloride] | 169% | 82% |  |  |  |  | 60% | 70% |  | 1950 ± 46 nM | 0.53 | 1040 ± 60 nM |  |  |  |  |
| C#CCNCCCNc1c2c(nc3ccc(Oc4ccccc4)cc13)CCCC2.Cl.Cl [Compound 26, N-(7-Phenoxy-1,2,3,4-tetrahydroacridin-9-yl)-N'-(prop-2-yn-1-yl)-propane-1,3-diamine dihydrochloride] | 14% | 4% |  |  |  |  | 88% | 79% |  | 1040 ± 40 nM | 1.02 | 1060 ± 62 nM |  |  |  |  |
| C=CCNc1ccnc2cc(Cl)ccc12.Cl [Compound 27, 7-Chloro-N-(prop-2-en-1-yl)quinolin-4-amine hydrochloride] | 150% | 127% |  |  |  |  | 54% | 19% |  | 10700 ± 406 nM | 6.18 | 66300 ± 2070 nM |  |  |  |  |
